What was measured:
Pseudomonas aeruginosa = test system: Pseudomonas aeruginosa; design: MIC against Pseudomonas aeruginosa: unit not given here; details: cited from earlier work
[1] = test system: Pseudomonas aeruginosa (PAO1); assay: Minimum inhibitory concentration (MIC); format: cell-based; details: for MIC v PA: Table 1
Procedure: (§1) As used herein, the term “minimum inhibitory concentration (MIC)” refers to the lowest concentration of an antimicrobial agent that will inhibit the visible growth of a microorganism after overnight incubation. MIC values against bacteria, for example, the Gram-positive Staphylococcus aureus and Enterococcus faecalis and the Gram-negative Escherichia coli and Pseudomonas aeruginosa were determined by standard methods. See also P. A. Wayne, Methods for Dilution Antimicrobial Tests for Bacteria that Grow Aerobically; Approved Standard, Ninth Edition, 2012, CLSI Document M07-A9, Vol. 32 No. 2, which is incorporated by reference herein in its entirety.
(§2) Compounds were serially diluted two-fold from a 10% DMSO/aqueous stock solution to yield twelve test concentrations. Overnight S. aureus, E. faecalis, E. coli, P. aeruginosa, CA-MRSA, and HA-MRSA cultures diluted to ca. 10^6 cfu/mL in Mueller-Hinton media and 100 μL were inoculated into each well of a U-bottom 96-well plate (BD Biosciences, BD351177) containing 100 μL of compound solution. Plates were incubated statically at 37° C. for 72 hours upon which time wells were evaluated visually for bacterial growth. The MIC was determined as the lowest concentration of compound resulting in no bacterial growth visible to the naked eye, based on the majority of three independent experiments. Positive and negative DMSO/aqueous solution and media controls were conducted for each trial. See Peng et al., 2011, Chem. Comm. 47:4896-4898.
as §2, with “trial.” for “trial. See Peng et al., 2011, Chem. Comm. 47:4896-4898.”

[2] = test system: Escherichia coli (MC4100); assay: Minimum inhibitory concentration (MIC); format: cell-based; details: for MIC v EC: Table 1
Procedure: as §1, §2
as §2, with “trial.” for “trial. See Peng et al., 2011, Chem. Comm. 47:4896-4898.”

[3] = test system: Enterococcus faecalis (OG1RF); assay: Minimum inhibitory concentration (MIC); format: cell-based; details: for MIC v EF: Table 1
Procedure: as §1, §2
as §2, with “trial.” for “trial. See Peng et al., 2011, Chem. Comm. 47:4896-4898.”

[4] = test system: Staphylococcus aureus (SA; MSSA SH1000); assay: Minimum inhibitory concentration (MIC); format: cell-based
Procedure: as §1, §2
as §2, with “trial.” for “trial. See Peng et al., 2011, Chem. Comm. 47:4896-4898.”

[5] = test system: Enterococcus faecalis biofilms; assay: Minimum biofilm eradication concentration (MBEC), regrowth assay; format: cell-based; details: Table 1
From the text: (§3) A regrowth assay was used to establish the MBEC of a compound to evaluate the antibiofilm activity. See also H. Ceri, M. Olson, D. Morck, D. Storey, R. Read, A. Buret, B. Olson, Methods Enzymol. 2001, 337, 377, which is incorporated by reference herein in its entirety.

[6] = test system: Staphylococcus aureus (MSSA) biofilms; assay: as above; format: cell-based; details: Table 1
Procedure: as §3
(§4) To each well of a flat-bottomed 96-well plate (Corning 3370), 8 μL of overnight bacterial culture was brought to a volume of 200 μL with fresh media (BHI for MSSA and MRSA). Plates were incubated statically for 24 hours at 37° C. to establish biofilms. After 24 hours, the wells were carefully emptied by inverting the plate and gently shaking. A pre-mixed solution of media and compound stock solution was added to each well and plates were incubated at 37° C. 16 hours after pre-established biofilms were treated with compound, the media from each well was removed, biofilms were washed three times with 200 μL PBS to remove planktonic cells, and biofilms were incubated overnight at 37° C. in 200 μL of fresh media to allow any viable cells to continue growing. The wells were then vigorously pipetted to resuspend the biofilm cells and the OD at 595 nm was measured using a plate reader (POLARstar Omega, BMG Labtech). Biofilms reaching a final OD of less than 0.1 were considered eradicated and the lowest concentration of antibiotic corresponded to the MBEC. Four replicates were completed for each concentration of compound as well as positive and negative controls.

[7] = test system: two MRSA strains-USA300-0114 and ATCC33591; assay: MIC against MRSA strains compared to MSSA; format: cell-based, Staphylococcus aureus; details: natural product-derived QACs; for susceptibility to QAC/MRSA resistance: MSSA vs MRSA, in words
Procedure: as §2
MIC values against Gram-positive Staphylococcus aureus (methicillin-susceptible Staphyloccocus aureus (MSSA) and two MRSA strains-USA300-0114 and ATCC33591) and Enterococcus faecalis and Gram-negative Escherichia coli and P. aeruginosa were determined according to standard, and results appear in Table 4.

[8] = test system: six bacteria (SA, HA-MRSA, CA-MRSA, EF, EC, PA); assay: MIC against the panel of bacteria tested; format: cell-based; details: quinine- and nicotine-derived QACs; in words
Procedure: as §1
The complete set of MIC values against six bacteria [Staphylococcus aureus (SA), hospital-acquired methicillin-resistant SA (HA-MRSA), community-acquired methicillin-resistant SA (CA-MRSA), Enterococcus faecalis (EF), Escherichia coli (EC), and Pseudomonas aeruginosa (PA)] is presented in Table 3, wherein multiQACs are grouped with their monoQAC counterparts. The dye-based QACs with greatest inhibition of the complete range of Gram-positive and Gram-negative bacteria featured bis- or tris-quaternization, with the optimal alkyl total ranging from 17-24 carbons. For example, comparison of two biscationic series -LMG-n,1 and LMG-n,n—evaluates the effect of total alkyl chain length in retention of efficacy against the more challenging CA-MRSA and the Gram-negative strains EC and PA.
as §2

CA-MRSA strain = assay: Reactivation assay (sub-MIC co-dosing); format: cell-based, Staphylococcus aureus; details: sub-MIC concentrations of TET-14,0,0, varying concentrations of triscationic variant
From the text: It was hypothesized that by using a reactivation assay (essentially the inverse of a potentiation assay), the role QacR plays in monoQAC resistance could be better understood. […] Other possible hypotheses include that QacR may be activated by our monoQACs but that QacA cannot efflux the trisQACs or that the resistance mechanism implicated for TET-14,0,0 may be orthogonal to the Qac system.

[9] = test system: methicillin-resistant Staphyloccocus aureus (MRSA); details: at 350 μm, cited from earlier work
[10] = test system: hospital-acquired methicillin-resistant Staphylococcus aureus HA-MRSA (ATCC 33591); assay: Minimum inhibitory concentration (MIC); format: cell-based; details: Table 6
Procedure: as §1, §2
as §2, with “trial.” for “trial. See Peng et al., 2011, Chem. Comm. 47:4896-4898.”

red blood cells = format: cell-based, sheep
Procedure: To date, synthesized compounds have been evaluated against planktonic bacteria (E. coli, S. aureus, P. aeruginosa, E. facaelis) and bacterial biofilms (E. facaelis, S. aureus, MRSA); new compounds are similarly assessed. All compounds are also evaluated via a hemolysis assay to assess their ability to lyse red blood cells (RBC) (Nagamune et al., 2000, Toxicology in Vitro 14:139-147). The assay is conducted following a known protocol to determine the concentration of compound that causes 20% of RBCs to be lysed. […] All compounds are benchmarked against three commercial antiseptics—benzalkonium chloride, DDAC, and CHX (FIG. 1).
Hemolysis assays were performed according to a known method (Peng et al., 2011, Chem. Comm. 47:4896-4898). Defibrinated sheep blood was purchased from Hemostat Labs (DSB030). Compounds representative of each class were serially diluted in sterile PBS from stock solutions and incubated with resuspended blood cells. The OD of the final suspensions were measured directly using plate reader. TritonX (1% by volume) served as a positive control (100% lysis marker) and sterile PBS served as a negative control (0% lysis marker).

[11] = test system: community-acquired methicillin-resistant Staphylococcus aureus CA-MRSA (USA300-0114); assay: Minimum inhibitory concentration (MIC); format: cell-based
Procedure: as §1, §2
as §2, with “trial.” for “trial. See Peng et al., 2011, Chem. Comm. 47:4896-4898.”

[12] = test system: MRSA biofilms (S. aureus USA300-0114); assay: Minimum biofilm eradication concentration (MBEC), regrowth assay; format: cell-based, Staphylococcus aureus; details: Table 2; pre-formed MRSA biofilms
Procedure: as §3, §4

Compound: COc1ccc2cc3[n+](cc2c1OC)CCc1cc2c(cc1-3)OCO2 [Berberine, berberine]
- activity against P. aeruginosa (Pseudomonas aeruginosa; in words, literature): micromolar activity

Compound: CCCCCCCCCCC[n+]1ccc(-c2cc[n+](CCCCCCCCCCC)cc2)cc1 [PQ-11,11]
- MIC v PA [1]: 4 µM
- MIC v EC [2]: 1 µM
- MIC v EF [3]: 1 µM
- MIC v SA ([4]; Table 1): 1 µM
- MBEC v EF [5]: 50 µM
- MBEC v SA [6]: 50 µM

Compound: C=CC1C[N+]2(CCCCCCCCCCCCCCCC)CCC1C[C@H]2[C@@H](O)c1cc[n+](C)c2ccc(OC)cc12.[Br-].[I-] (stereo partly shown) [Q-16,1]
- susceptibility to QAC/MRSA resistance [7]: unaffected by QAC resistance
- antimicrobial activity [8]: single-digit micromolar activity

Compound: C=CC1C[N+]2(CCCCCCCCCCCCCCCCCC)CCC1C[C@H]2[C@@H](O)c1ccnc2ccc(OC)cc12.[Br-] (stereo partly shown) [Q-18,0]
- increase in MIC of MRSA as compared to MSSA [7]: 32 fold

Compound: C=CC1C[N+]2(CCCCCCCCCCCCCCCCCC)CCC1C[C@H]2[C@@H](O)c1cc[n+](C)c2ccc(OC)cc12.[Br-].[I-] (stereo partly shown) [Q-18,1]
- susceptibility to QAC/MRSA resistance [7]: unaffected by QAC resistance
- antimicrobial activity [8]: single-digit micromolar activity

Compound: CCCCCCCCCCCCCC[N+](CC)(CC)c1ccc(N(c2ccc([N+](C)(CC)CC)cc2)c2ccc([N+](C)(CC)CC)cc2)cc1 [TET-14,1,1]
- modification of MIC on co-dosing with sub-MIC TET-14,0,0 (CA-MRSA strain): did not result in any significant modification

Compound: COc1cc2c(cc1O)[C@@H](Cc1ccc(O)cc1)[N+](C)(C)CC2 [magnocuraine, magnocurarine]
- effectiveness against MRSA ([9]; in words): no effectiveness

Compound: Latifolian A
- MIC against Pseudomonas aeruginosa (Pseudomonas aeruginosa; Martin et al., 2011): 35
- inhibition of MRSA [9]: 55%

Compound: benzalkonium chloride [reference compound]
- MIC HA-MRSA [10]: 32 µM
- MIC v PA [1]: 63 µM
- MIC PA ([1]; Table 6): 63 µM
- MIC v EC [2]: 32 µM
- MIC EC ([2]; Table 6): 32 µM
- MIC v EF [3]: 8 µM
- MIC EF ([3]; Table 6): 8 µM
- Lysis20 (red blood cells): 63 µM
- TI MRSA (red blood cells): 2
- TI SA (red blood cells): 8
- MIC v MRSA ([11]; Table 2, qac-bearing MRSA strain USA300-0114): 32 µM
- MIC CA-MRSA ([11]; Table 6): 8 µM
- MIC v SA ([4]; Table 1): 8 µM
- MIC v SA ([4]; Table 2, non-resistant S. aureus strain (SH1000)): 8 µM
- MIC SA ([4]; Table 6): 8 µM
- MBEC v MRSA [12]: >200 µM
- MBEC v EF [5]: 200 µM
- MBEC v SA [6]: 200 µM

— patent publication US20180111893A1, “POLYCATIONIC AMPHIPHILES AND POLYMERS THEREOF AS ANTIMICROBIAL AGENTS AND METHODS USING SAME” (Temple University-Of The Commonwealth System of Higher …, priority 2015, published 2018)
